Laboratory results taken from PubChem BioAssay (NCI).
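Step 1: Grow cells in 96-well plates. Step 2: Expose to compound for 48 hours at 5 concentrations. Step 3: Interpolate endpoints linearly; if unreached, use highest concentration. The concentration for full growth arrest is given as TGI.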

Assays:
Test in all cases: NCI-60 cell line screen, 48 h
NCI-H460 lung = test system: NCI-H460 lung
KM12 colon = test system: KM12 colon
MOLT-4 leukemia = test system: MOLT-4 leukemia
MDA-MB-435 = test system: MDA-MB-435
SNB-19 CNS = test system: SNB-19 CNS
NCI-H522 lung = test system: NCI-H522 lung
OVCAR-5 ovarian = test system: OVCAR-5 ovarian
SN12C renal = test system: SN12C renal
A549 NSCLC = test system: A549 NSCLC
SK-OV-3 ovarian = test system: SK-OV-3 ovarian
RPMI-8226 leukemia = test system: RPMI-8226 leukemia
UACC-62 melanoma = test system: UACC-62 melanoma
RXF 393 renal = test system: RXF 393 renal
CCRF-CEM leukemia = test system: CCRF-CEM leukemia
HT29 colon = test system: HT29 colon
HOP-62 NSCLC = test system: HOP-62 NSCLC
NCI/ADR-RES ovarian = test system: NCI/ADR-RES ovarian
SK-MEL-28 melanoma = test system: SK-MEL-28 melanoma
NCI-H23 lung = test system: NCI-H23 lung
HCC-2998 colon = test system: HCC-2998 colon
HL-60(TB) leukemia = test system: HL-60(TB) leukemia
SF-539 CNS = test system: SF-539 CNS
UO-31 renal = test system: UO-31 renal
SF-268 CNS = test system: SF-268 CNS
MCF7 breast = test system: MCF7 breast
786-0 renal = test system: 786-0 renal
M14 melanoma = test system: M14 melanoma
OVCAR-3 ovarian = test system: OVCAR-3 ovarian
ACHN renal = test system: ACHN renal
IGROV1 ovarian = test system: IGROV1 ovarian
MDA-MB-231 breast = test system: MDA-MB-231 breast
A498 renal = test system: A498 renal
EKVX NSCLC = test system: EKVX NSCLC
K-562 leukemia = test system: K-562 leukemia
U251 CNS = test system: U251 CNS
T-47D breast = test system: T-47D breast
MALME-3M melanoma = test system: MALME-3M melanoma
TK-10 renal = test system: TK-10 renal
MDA-N = test system: MDA-N
LOX IMVI melanoma = test system: LOX IMVI melanoma
SNB-75 CNS = test system: SNB-75 CNS
HCT-116 colon = test system: HCT-116 colon
SK-MEL-2 melanoma = test system: SK-MEL-2 melanoma
COLO 205 colon = test system: COLO 205 colon
DU-145 prostate = test system: DU-145 prostate
SK-MEL-5 melanoma = test system: SK-MEL-5 melanoma
SW-620 colon = test system: SW-620 colon
SF-295 CNS = test system: SF-295 CNS
BT-549 breast = test system: BT-549 breast
UACC-257 melanoma = test system: UACC-257 melanoma
PC-3 prostate = test system: PC-3 prostate
HOP-92 NSCLC = test system: HOP-92 NSCLC
OVCAR-8 ovarian = test system: OVCAR-8 ovarian
OVCAR-4 ovarian = test system: OVCAR-4 ovarian
HCT-15 colon = test system: HCT-15 colon
HS 578T breast = test system: HS 578T breast
CAKI-1 renal = test system: CAKI-1 renal
NCI-H226 lung = test system: NCI-H226 lung

NNC(=O)Cc1cccnc1
TGI (NCI-H460 lung): > 100 µM | TGI (KM12 colon): > 100 µM | TGI (MOLT-4 leukemia): > 100 µM | TGI (MDA-MB-435): > 100 µM | TGI (SNB-19 CNS): > 100 µM | TGI (NCI-H522 lung): > 100 µM | TGI (OVCAR-5 ovarian): > 100 µM | TGI (SN12C renal): > 100 µM | TGI (A549 NSCLC): > 100 µM | TGI (SK-OV-3 ovarian): > 100 µM | TGI (RPMI-8226 leukemia): > 100 µM | TGI (UACC-62 melanoma): > 100 µM | TGI (RXF 393 renal): > 100 µM | TGI (CCRF-CEM leukemia): > 100 µM | TGI (HT29 colon): > 100 µM | TGI (HOP-62 NSCLC): > 100 µM | TGI (NCI/ADR-RES ovarian): > 100 µM | TGI (SK-MEL-28 melanoma): > 100 µM | TGI (NCI-H23 lung): > 100 µM | TGI (HCC-2998 colon): > 100 µM | TGI (HL-60(TB) leukemia): > 100 µM | TGI (SF-539 CNS): > 100 µM | TGI (UO-31 renal): > 100 µM | TGI (SF-268 CNS): > 100 µM | TGI (MCF7 breast): > 100 µM | TGI (786-0 renal): > 100 µM | TGI (M14 melanoma): > 100 µM | TGI (OVCAR-3 ovarian): > 100 µM | TGI (ACHN renal): > 100 µM | TGI (IGROV1 ovarian): > 100 µM | TGI (MDA-MB-231 breast): > 100 µM | TGI (A498 renal): > 100 µM | TGI (EKVX NSCLC): > 100 µM | TGI (K-562 leukemia): > 100 µM | TGI (U251 CNS): > 100 µM | TGI (T-47D breast): > 100 µM | TGI (MALME-3M melanoma): > 100 µM | TGI (TK-10 renal): > 100 µM | TGI (MDA-N): > 100 µM | TGI (LOX IMVI melanoma): > 100 µM | TGI (SNB-75 CNS): > 100 µM | TGI (HCT-116 colon): > 100 µM | TGI (SK-MEL-2 melanoma): > 100 µM | TGI (COLO 205 colon): > 100 µM | TGI (DU-145 prostate): > 100 µM | TGI (SK-MEL-5 melanoma): > 100 µM | TGI (SW-620 colon): > 100 µM | TGI (SF-295 CNS): > 100 µM | TGI (BT-549 breast): > 100 µM | TGI (UACC-257 melanoma): > 100 µM | TGI (PC-3 prostate): > 100 µM | TGI (HOP-92 NSCLC): > 100 µM | TGI (OVCAR-8 ovarian): > 100 µM | TGI (OVCAR-4 ovarian): > 100 µM | TGI (HCT-15 colon): > 100 µM | TGI (HS 578T breast): > 100 µM | TGI (CAKI-1 renal): > 100 µM

COc1cc2c(cc1OC)C1=Cc3ccc(OC)c(OC)c3C(C#N)N1CC2 (stereo unspecified)
TGI (NCI-H460 lung): > 100 µM | TGI (KM12 colon): 58.7 µM | TGI (MOLT-4 leukemia): > 100 µM | TGI (MDA-MB-435): 82.3 µM | TGI (SNB-19 CNS): > 100 µM | TGI (NCI-H522 lung): > 100 µM | TGI (OVCAR-5 ovarian): > 100 µM | TGI (SN12C renal): > 100 µM | TGI (A549 NSCLC): > 100 µM | TGI (SK-OV-3 ovarian): > 100 µM | TGI (RPMI-8226 leukemia): 76.3 µM | TGI (UACC-62 melanoma): 45.5 µM | TGI (CCRF-CEM leukemia): > 100 µM | TGI (HT29 colon): > 100 µM | TGI (HOP-62 NSCLC): > 100 µM | TGI (NCI/ADR-RES ovarian): > 100 µM | TGI (SK-MEL-28 melanoma): > 100 µM | TGI (NCI-H23 lung): > 100 µM | TGI (HCC-2998 colon): 51.1 µM | TGI (HL-60(TB) leukemia): > 100 µM | TGI (SF-539 CNS): > 100 µM | TGI (UO-31 renal): > 100 µM | TGI (SF-268 CNS): > 100 µM | TGI (MCF7 breast): > 100 µM | TGI (786-0 renal): > 100 µM | TGI (M14 melanoma): > 100 µM | TGI (OVCAR-3 ovarian): > 100 µM | TGI (ACHN renal): > 100 µM | TGI (MDA-MB-231 breast): 81.3 µM | TGI (A498 renal): > 100 µM | TGI (EKVX NSCLC): > 100 µM | TGI (U251 CNS): > 100 µM | TGI (T-47D breast): 40.4 µM | TGI (MALME-3M melanoma): 82.9 µM | TGI (NCI-H226 lung): > 100 µM | TGI (TK-10 renal): > 100 µM | TGI (MDA-N): > 100 µM | TGI (SNB-75 CNS): 33.8 µM | TGI (HCT-116 colon): > 100 µM | TGI (SK-MEL-2 melanoma): 43.4 µM | TGI (COLO 205 colon): 43.8 µM | TGI (DU-145 prostate): > 100 µM | TGI (SK-MEL-5 melanoma): 38.6 µM | TGI (SW-620 colon): > 100 µM | TGI (SF-295 CNS): > 100 µM | TGI (BT-549 breast): 63.2 µM | TGI (UACC-257 melanoma): 47.4 µM | TGI (PC-3 prostate): > 100 µM | TGI (OVCAR-4 ovarian): > 100 µM | TGI (HCT-15 colon): > 100 µM | TGI (HS 578T breast): > 100 µM | TGI (CAKI-1 renal): > 100 µM

O=c1[nH]nc(Cc2ccccc2)n1/N=C/c1ccc([N+](=O)[O-])o1
TGI (NCI-H460 lung): > 100 µM | TGI (KM12 colon): 6.49 µM | TGI (MOLT-4 leukemia): > 100 µM | TGI (MDA-MB-435): 3.8 µM | TGI (SNB-19 CNS): 38.1 µM | TGI (NCI-H522 lung): 3.87 µM | TGI (OVCAR-5 ovarian): 26.1 µM | TGI (SN12C renal): 46 µM | TGI (A549 NSCLC): > 100 µM | TGI (SK-OV-3 ovarian): > 100 µM | TGI (RPMI-8226 leukemia): 21.2 µM | TGI (UACC-62 melanoma): 4.56 µM | TGI (RXF 393 renal): 7.94 µM | TGI (CCRF-CEM leukemia): > 100 µM | TGI (HT29 colon): 18.9 µM | TGI (HOP-62 NSCLC): 22 µM | TGI (NCI/ADR-RES ovarian): 13.1 µM | TGI (SK-MEL-28 melanoma): 17.6 µM | TGI (NCI-H23 lung): 74.8 µM | TGI (HCC-2998 colon): 71.6 µM | TGI (HL-60(TB) leukemia): > 100 µM | TGI (SF-539 CNS): 8.94 µM | TGI (UO-31 renal): > 100 µM | TGI (SF-268 CNS): 11.7 µM | TGI (MCF7 breast): > 100 µM | TGI (786-0 renal): 22.7 µM | TGI (M14 melanoma): 7.1 µM | TGI (OVCAR-3 ovarian): 29.8 µM | TGI (ACHN renal): 27.4 µM | TGI (IGROV1 ovarian): 15.7 µM | TGI (MDA-MB-231 breast): 18.4 µM | TGI (A498 renal): 23.1 µM | TGI (EKVX NSCLC): 16.7 µM | TGI (K-562 leukemia): > 100 µM | TGI (U251 CNS): 16.3 µM | TGI (T-47D breast): 79.1 µM | TGI (MALME-3M melanoma): 3.21 µM | TGI (NCI-H226 lung): 29.5 µM | TGI (TK-10 renal): 17.6 µM | TGI (MDA-N): 4.83 µM | TGI (LOX IMVI melanoma): > 100 µM | TGI (SNB-75 CNS): 15 µM | TGI (HCT-116 colon): 6.13 µM | TGI (SK-MEL-2 melanoma): 16 µM | TGI (COLO 205 colon): > 100 µM | TGI (DU-145 prostate): 42.3 µM | TGI (SW-620 colon): > 100 µM | TGI (SF-295 CNS): 36.2 µM | TGI (BT-549 breast): 1.7 µM | TGI (UACC-257 melanoma): 19.7 µM | TGI (PC-3 prostate): 20.9 µM | TGI (HOP-92 NSCLC): 30.1 µM | TGI (OVCAR-8 ovarian): 19.2 µM | TGI (OVCAR-4 ovarian): 24.4 µM | TGI (HCT-15 colon): > 100 µM | TGI (HS 578T breast): 7.29 µM | TGI (CAKI-1 renal): 25 µM
